Measurements as given in PubChem BioAssay AID743303 (Broad Institute, 2014).
Several values for one entry are separate records, joined by “and”; a condition that tells them apart may be missing. Identical values can stand only once. Activity calls are given as the source filed them. How the calls were made is not given here.

Tested on: not listed separately
Assay: inducers of C. neoformans cell lysis, dose response, AK release, plate reader, dry powder, set 2 (AID 743303)
Details: C. neoformans cell lysis, adenylate kinase release; at 15 µM (top of the series)

Compound | cell lysis activity
CS(=O)(=O)c1ccc(OCCn2cnc3ccccc32)cc1 | -28.4% (inactive)
Cc1ccc(C(C)C)c(OCCn2c(=O)[nH]c3ccccc32)c1 | -24.5% (inactive)
COc1cc(C)ccc1OCCn1cnc2ccccc21 | -57.7% (inactive)
Fc1ccc(OCCn2c(=S)[nH]c3ccccc32)cc1 | -65.4% (inactive)
Clc1ccc(OCCn2cnc3ccccc32)c(Cl)c1 | -34% (inactive)
Cc1ccc2c(c1)[nH]c(=S)n2CCOc1ccccc1 | 10.9% (inactive)
O=S(=O)(c1ccc(OCCn2cnc3ccccc32)cc1)N1CCOCC1 | -15% (inactive)
c1ccc(-c2ccc(OCCn3cnc4ccccc43)cc2)cc1 | 6.2% (inactive)
COc1cccc(OCCn2cnc3ccccc32)c1 | -2.74% (inactive)
CSc1nc2ccccc2n1CCOc1ccc(C)cc1 | 16.4% (inactive)
COc1ccccc1OCCn1c(=S)[nH]c2ccccc21 | -4.68% (inactive)
CC(C)Oc1ccc(OCCn2c(=S)[nH]c3ccccc32)cc1 | 26.4% (inactive)
Cc1ccc(C(C)C)c(OCCn2c(NC#N)nc3ccccc32)c1 | -24% (inactive)
CSc1nc2ccccc2n1CCOc1cc(C)ccc1C(C)C | -20.1% (inactive)
c1ccc2c(c1)ncn2CCOc1ccc2c(c1)CCC2 | 33.8% (inactive)

Tested on: C. neoformans cell lysis, adenylate kinase release
Assay: as above
Details: not given

Compound | AC40
Cc1ccc(C(C)C)c(OCCn2c(=S)[nH]c3ccccc32)c1 | 9.17 µM
Cc1cccc(OCCn2c(=S)[nH]c3cc(F)ccc32)c1 | 2.42 µM and 3.03 µM
S=c1[nH]c2cccc(Cl)c2n1CCOc1ccccc1 | 2.83 µM
Fc1cccc2c1[nH]c(=S)n2CCOc1ccccc1 | 13.8 µM
CC(C)Oc1cccc(OCCn2cnc3ccccc32)c1 | > 15 µM (inactive)
OCc1nc2ccccc2n1CCOc1ccccc1 | > 15 µM (inactive)
CSc1nc2ccccc2n1CCOc1ccccc1 | > 15 µM (inactive)
CCCc1nc2ccccc2n1CCOc1ccccc1 | 7.46 µM
Clc1ccc(OCCn2cnc3ccccc32)cc1 | > 15 µM (inactive)
Cc1cc2ncn(CCOc3ccc4c(c3)CCC4)c2cc1C | 4.6 µM
Cc1ccc(C(C)C)c(OCCn2c(CO)nc3ccccc32)c1 | > 15 µM (inactive)
Cc1cc2ncn(CCOc3ccccc3C)c2cc1C | 2.42 µM
CCCCc1nc2ccccc2n1CCOc1ccccc1 | 6.27 µM
CCSc1nc2ccccc2n1CCOc1ccccc1 | > 15 µM (inactive)
FC(F)(F)c1cccc(OCCn2cnc3ccccc32)c1 | > 15 µM (inactive)
Cc1ccc(OCCn2cnc3ccccc32)c(C)c1 | > 15 µM (inactive)
CC(C)(C)c1ccc(OCCn2c(CO)nc3ccccc32)cc1 | 14.2 µM
Cc1ccccc1OCCn1cnc2ccccc21 | 15 µM
CC(C)c1ccccc1NCCn1c(=S)[nH]c2ccccc21 | 3.78 µM
Cc1cccc(OCCn2c(=S)[nH]c3c(F)cccc32)c1 | 3.23 µM and 1.51 µM

Compound | AC40
c1ccc(COc2ccc(OCCn3cnc4ccccc43)cc2)cc1 | > 15 µM (inactive)
S=c1[nH]c2cc(Cl)ccc2n1CCOc1ccccc1 | 2.57 µM
Fc1ccc2c(c1)[nH]c(=S)n2CCOc1ccccc1 | 2.83 µM and 6.57 µM
CC(C)(C)c1ccc(OCCn2cnc3ccccc32)cc1 | 1.46 µM
Cc1ccc(C(C)C)c(OCCn2c(N)nc3ccccc32)c1 | > 15 µM (inactive)
Clc1ccccc1OCCn1cnc2ccccc21 | > 15 µM (inactive)
CC(C)(C)c1ccc(OCCn2cnc3ccccc32)c(Cl)c1 | > 15 µM (inactive)
CC(C)Oc1ccc(OCCn2cnc3ccccc32)cc1 | > 15 µM (inactive)
Cc1cc2ncn(CCOc3ccccc3)c2cc1C | 10.1 µM
Cc1cccc(OCCn2c(=S)[nH]c3ccc(C(F)(F)F)cc32)c1 | > 15 µM (inactive)
CC(C)c1ccccc1OCCn1c(=S)[nH]c2ccccc21 | 1.25 µM
Cc1ccc(OCCn2cnc3cc(C)c(C)cc32)cc1 | 1.94 µM
NCC(=O)Nc1ccc(-n2nc(C(F)(F)F)cc2-c2ccc3c(ccc4ccccc43)c2)cc1 | 5 µM
Cc1ccc(OCCn2cnc3ccccc32)c(C(C)C)c1 | 4.09 µM
Cc1cccc(OCCn2cnc3ccccc32)c1 | 12.8 µM
COc1ccccc1OCCn1c(SC)nc2ccccc21 | > 15 µM (inactive)
CCc1nc2ccccc2n1CCOc1ccccc1 | > 15 µM (inactive)
Cc1cccc(OCCn2c(=S)[nH]c3ccccc32)c1 | 1.38 µM
COCc1nc2ccccc2n1CCOc1ccc(C(C)(C)C)cc1 | > 15 µM (inactive)
COc1ccc(OCCn2cnc3ccccc32)cc1 | > 15 µM (inactive)
